Source: patent publication US20080194590A1, “4-Piperazinylthieno [2,3-D] Pyrimidine Compounds as Platelet Aggregation Inhibitors” (Pfizer Inc, priority 2005, published 2008)
Values joined by “and” are separate entries in the source; they are usually repeats but may differ in a detail not shown here. Identical values can stand only once.

Legend:
P2Y12 receptor [1] = molecular target: T1, P2Y12 receptor (Homo sapiens, UniProt Q9H244); test: Human P2Y12 recombinant cell membrane binding assay with 33P 2MeS-ADP (Assay 3); parameters: expressed in transfected cells; host or cells: HEK cells; conditions: for IC50 / Ki: HEK cell membranes expressing P2Y12, multiple lines = multiple runs; for [33P]-2MeS-ADP Binding to Recombinant Human P2Y12 Membranes (Assay 3) % Inhibition / inhibition at 10 µM: highest concentration tested 10 μM; for inhibition at 10 µM: read-out: [33P]-2MeS-ADP Binding to Recombinant Human P2Y12 Membranes (Assay 3) % Inhibition
T1 sequence (Q9H244 whole entry): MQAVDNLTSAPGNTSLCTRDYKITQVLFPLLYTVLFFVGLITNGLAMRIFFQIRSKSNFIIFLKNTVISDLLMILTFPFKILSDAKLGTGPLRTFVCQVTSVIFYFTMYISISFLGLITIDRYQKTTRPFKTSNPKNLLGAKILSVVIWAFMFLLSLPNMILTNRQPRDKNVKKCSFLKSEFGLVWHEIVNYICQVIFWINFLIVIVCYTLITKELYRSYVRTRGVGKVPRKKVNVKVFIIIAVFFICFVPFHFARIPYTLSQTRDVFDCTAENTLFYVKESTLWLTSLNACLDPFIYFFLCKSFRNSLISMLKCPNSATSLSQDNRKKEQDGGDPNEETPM
Protocol: 3. Human P2Y12 Recombinant Cell Membrane Binding Assay with ^33P 2MeS-ADP.
The ability of a test compound to bind to the P2Y12 receptor was evaluated in a recombinant cell membrane binding assay. In this competitive binding assay, the test compound competed against a radiolabelled agonist for binding to the P2Y12 receptor, expressed on the cell membrane. Inhibition of binding of the labeled material was measured and correlated to the amount and potency of the test compound. Data from this assay are presented in Table F. This binding assay is a modification of the procedure in Takasaki, J. et. al, Mol. Pharmacol., 2001, Vol. 60, pg. 432.
HEK cells were transfected with the pDONR201P2Y12 vector and cultured in MEM with GlutaMAX I, Earle's salts, 25 mM HEPES (Gibco # 42360-032) containing 10% dialyzed FBS (Gibco # 26400-044), 100 μM nonessential amino acids (Gibco # 11140-050), 1 mM sodium pyruvate (Gibco # 11360-070), 0.05% geneticin (Gibco #10131-027), 3 μg/mL blasticidin (Fluka brand from Sigma # 15205), and 0.5 μg/mL puromycin (Sigma # P-8833).
Confluent cells were washed once with cold DPBS (Gibco # 14190-136). Fresh DPBS was added and the cells were scraped and centrifuged at 500×g for 5 minutes at 4° C. The cell pellets were resuspended in TEE buffer (25 mM Tris, 5 mM EDTA, 5 mM EGTA) containing 1 protease inhibitor cocktail tablet (Roche # 1 873 580) per 50 mL (called TEE+Complete) and can be flash frozen at this point.
In one embodiment, frozen cell pellets were used to prepare the membranes. In that embodiment, the frozen cell pellets were thawed on ice. In another embodiment, cell pellets may be used without flash freezing before moving on to the next step.
Cell pellets were resuspended in TEE buffer+Complete and homogenized in a glass dounce for 12 strokes. The cell suspension was centrifuged at 500×g for 5 minutes at 4° C. The supernatant was saved and centrifuged at 20,000×g for 20 minutes at 4° C. This supernatant was discarded and the cell pellet resuspended in TEE buffer+Complete and homogenized in a glass dounce for 12 strokes. This suspension was centrifuged at 20,000×g for 20 minutes at 4° C. and the supernatant discarded. The pellet was resuspended in assay buffer (50 mM Tris, 100 mM NaCl, 1 mM EDTA) containing one protease inhibitor cocktail tablet per 50 mL, and can be flash frozen as 1 mL aliquots at this point.
Dry compounds were diluted as 10 mM DMSO stocks and tested in a seven-point, three-fold dilution series run in triplicate beginning at 10 μM, final concentration. A 1 mM DMSO intermediate stock was made in a dilution plate and from this the seven dilutions were made to 5× the final concentration in assay buffer containing 0.02% BSA.
To a polypropylene assay plate (Costar # 3365) the following were added: a) 30 μL of assay buffer containing one protease inhibitor cocktail tablet per 50 mL; b) 30 μL of 1 nM ^33P 2MeS-ADP made in assay buffer containing 0.02% BSA and 12.5 mg/mL ascorbic acid; 30 μL of cold 1.5 μM 2MeS-ADP for the positive control wells, or assay buffer containing 0.02% BSA and 12.5 mg/mL ascorbic acid for the negative control wells, or 5× drug dilution; and 60 μL of 1 ug/well membranes.
The plates were incubated at room temperature for 1 hour. The reaction was stopped using a cell harvester to transfer the reaction mixture onto GF/B UniFilter plates (Perkin Elmer # 6005177), and washed three times with wash buffer (50 mM Tris), filtering between each wash. The filter plates were dried for approximately 20 minutes in an oven at 50° C. Back seals were adhered to the filter plates and 25 uL of Microscint 20 scintillation fluid (Perkin Elmer # 6013621) were added. The filter plates were sealed, shaken for 30 minutes, and counted on a Top Count. Data were analyzed using a four-parameter curve fit with a fixed minimum and maximum experimentally defined as the average positive and negative controls on each plate, and with a hill slope equal to one.

P2Y12 receptor [2] = molecular target: T1, P2Y12 receptor; test: as above; parameters: expressed in transfected cells; host or cells: HEK cells; conditions: highest concentration tested 1 μM; read-out: [33P]-2MeS-ADP Binding to Recombinant Human P2Y12 Membranes (Assay 3) % Inhibition

| IC50 (P2Y12 receptor [1]) | Ki (P2Y12 receptor [1]) | [33P]-2MeS-ADP Binding to Recombinant Human P2Y12 Membranes (Assay 3) % Inhibition (P2Y12 receptor [1]) [%] | inhibition at 10 µM (P2Y12 receptor [1]) [%] | inhibition at 1 µM (P2Y12 receptor [2]) [%] | Structure (SMILES) |
| --- | --- | --- | --- | --- | --- |
| 68 nM and 50 nM and 132 nM | 36 nM and 30 nM and 76 nM | 93.19 | 97.3 | 89 | CCc1cc2c(N3CCN(C(=O)c4cccc(-c5ccccc5)c4)CC3)nc(NC[C@H](O)CO)nc2s1 [Example 29, (2S)-3-({4-[4-(1,1′-biphenyl-3-ylcarbonyl)piperazin-1-yl]-6-ethylthieno[2,3-d]pyrimidin-2-yl}amino)propane-1,2-diol] |
| 63 nM and 80 nM and 105 nM | 33 nM and 50 nM and 61 nM | 96.44 | 97.7 | 88 | CCc1cc2c(N3CCN(C(=O)c4cccc(-c5ccccc5)c4)CC3)nc(NC[C@@H](O)CO)nc2s1 [Example 30, (2R)-3-({4-[4-(1,1′-biphenyl-3-ylcarbonyl)piperazin-1-yl]-6-ethylthieno[2,3-d]pyrimidin-2-yl}amino)propane-1,2-diol] |
| 21 nM | 12 nM |  |  | 93 | CCc1cc2c(N3CCN(C(=O)c4ccc(-c5ccccc5)cc4)CC3)nc(NC(CO)CO)nc2s1 [Example 31, 2-({4-[4-(1,1′-biphenyl-4-ylcarbonyl)piperazin-1-yl]-6-ethylthieno[2,3-d]pyrimidin-2-yl}amino)propane-1,3-diol] |
